Laboratory results taken from patent US10414718B2, “Dezocine analogue” (priority 2016, dated 2019).
Where two headings read alike, the source gives them in different places.

Assays:
[1] = Pharmacokinetic study of intravenous injection in rats; conditions: SD, rat, plasma, 1 mg/kg
Source text: Through the in vivo drug metabolism test in rats, values such as Cmax, t1/2, AUC, MRT and B/P ratio of the compound in vivo were used as indicators to evaluate the metabolism of the compound in rats.
1. Pharmacokinetic Study of Intravenous Injection of Dezocine and Analogues Thereof in Rats
Mixing the test compound with an appropriate amount of physiological saline solution of 20% polyethylene glycol 400, followed by vortex and sonicate, and adjusting the pH to 4-5 with hydrochloric acid to obtain 5 mg/mL approximately clear solution, filtering the solution by microporous filtering film to be used. Selecting 6 to 9 weeks old SD rats (Shanghai Sleek Laboratory Animal Co., Ltd.) and intravenously injecting the test compound solution at a dose of 1 mg/kg. Collecting whole blood in certain time to prepare and obtain plasma. Analyzing drug concentrations by LC-MS/MS method and calculating pharmacokinetic parameters using Phoenix WinNonlin software (Pharsight, USA).

[2] = Pharmacokinetics of intramuscular injection of Compound 21 and prodrug thereof in rats; conditions: SD, in vivo, im, rat
Source text: 3. Pharmacokinetics of Intramuscular Injection of Compound 21 and Prodrug Thereof in Rats
Mixing the test compound with an appropriate amount of sesame oil, followed by vortex and sonicate, to prepare and obtain 25 μmol/mL homogeneous suspension. […] Collecting whole blood in certain time, adding precipitant (acetonitrile, methanol and analytical internal standard) and centrifugating.

[3] = target: T1, μ opioid receptor (Homo sapiens, UniProt P35372); test: FLIPR intracellular calcium signal test, HEK293-μ cells; assay type: cell-based; conditions: for EC50: EC50 (activation) test, read-out: Mu receptor EC50; for IC50: IC50 (inhibition) test against EC80 of positive agonist, read-out: Mu receptor IC50
T1 construct: expressed in transfected cells
Experimental: (§1) Fluorescence imaging plate reader FLIPR was used to detect changes of intracellular calcium signals. EC50 and IC50 values of the compounds were used as indicators to evaluate the activation or inhibition of the compounds on μ, κ, and δ opioid receptors.
(§2) Cell lines: HEK293-μ, HEK293-κ and HEK293-δ, stable-transfected cell lines HEK293-μ, HEK293-κ and HEK293-δ; Cell culture media (DMEM, Invitrogen #11965118, 10% fetal bovine serum Invitrogen #10099141, Geneticin Selective Antibiotic (G418) 300 μg/mL, Invitrogen #10131027, Blasticidin-S HCL 2 ug/mL Invitrogen #A1113902)
(§3) 1. Cell Seeding (HEK293-μ, HEK293-κ and HEK293-δ Cells)
(§4) 1) Preheating medium, pancreatic enzyme, and DPBS in a 37° C. water bath. Aspirating the culture medium from the cell culture flask and washing it with 10 mL DPBS;
(§5) 2) Adding the preheated pancreatic enzyme solution to the cell culture flask, rotating the flask slightly to make the pancreatic enzymes evenly cover the cell surface of the flask, and then putting it into a 37° C., 5% CO2 incubator to digest for 1-2 minutes;
(§6) 3) Suspending the cells with 10-15 mL culture medium in each T150 cm^2 cell culture flask, centrifugating at 800 rpm for 5 minutes, and resuspending the cells with 10 mL culture medium, aspirating 1 mL cell resuspension to be counted with Vi-cell;
(§7) 4) Diluting HEK293-μ, HEK293-κ and HEK293-δ cells to 5×10^5/mL with culture medium, use multichannel pipette to add diluted cells into 384 plate (Greiner #781946) (50 μL/well, 25000 cells/well for HEK293-μ, HEK293-κ and HEK293-δ cells). Placing the cell plate in a 37° C., 5% CO2 incubator overnight.
(§8) 2. Adding Compound Samples:
(§9) 1) Diluting the compound to 20 mM with DMSO, 3 fold diluted, 8 gradients, double reduplicative wells, and adding it to the compound plate using an Echo ultrasonic liquid handler device (Echo liquid handler).
(§10) 1) Washing off the cell culture medium in 384 plate with vacuum pump, adding 20 μL Fluo-4 Direct fluorescent dye, then incubating in a 37° C., 5% CO2 incubator for 50 minutes, followed by equilibrating at room temperature for 10 minutes.
(§11) 2) EC50 test: Adding 20 uL HBSS buffer (containing 20 mM HEPES) to the compound plate, mixing well and centrifugating. Placing the cell plate and compound plate into FLIPR and reading the fluorescence value.
(§12) Calculating the EC80 value with the EC50 value of the positive agonist, preparing 4× EC80 solution, adding it to the 384 compound plate by multichannel pipette, and mixing well and centrifugating.
(§13) 4) IC50 test: In FLIPR, successively placing 4× EC80 plate, cell plate, FLIPR tip, running the program and reading the fluorescence value.
(§14) 4. Data Analyzing: Using Prism 5.0 to Analyze the Data and Calculate the EC50 and IC50 Values of the Compounds.

[4] = Brain distribution study of intravenous injection in rats; conditions: rat, 1 mg/kg, brain tissue to plasma concentration ratio; for B/P ratio (0.25 h): 0.25 h after dosing; for B/P ratio (2 h): 2 h after dosing
Experimental: 2. Brain Distribution Study of Intravenous Injection of Dezocine and Analogues Thereof in Rats
Intravenously injecting the test compound solution in the same manner as example 1 at a dose of 1 mg/kg. Executing animals with carbon dioxide 15 minutes and 2 hours after dosing, collecting whole blood and brain tissue sample, centrifugating the whole blood to obtain plasma, and homogenizing the brain tissue with triple volumes of deionized water. Analyzing drug concentration of the plasma and brain homogenate samples by LC-MS/MS method, and calculating the concentration ratio of brain tissue to plasma (B/P ratio).

[5] = target: T2, δ opioid receptor (Homo sapiens, UniProt P41143); test: FLIPR intracellular calcium signal test, HEK293-δ cells; assay type: cell-based; conditions: for EC50: EC50 (activation) test, read-out: Delt receptor EC50; for IC50: IC50 (inhibition) test against EC80 of positive agonist, read-out: Delt receptor IC50
T2 construct: expressed in transfected cells
Experimental: as §1, §2, §3, §4, §5, §6, §7, §8, §9, §10, §11, §12, §13, §14

[6] = target: T3, κ opioid receptor (Homo sapiens, UniProt P41145); test: FLIPR intracellular calcium signal test, HEK293-κ cells; assay type: cell-based; conditions: for EC50: EC50 (activation) test, read-out: Kapp receptor EC50; for IC50: IC50 (inhibition) test against EC80 of positive agonist, read-out: Kapp receptor IC50
T3 construct: expressed in transfected cells
Experimental: as §1, §2, §3, §4, §5, §6, §7, §8, §9, §10, §11, §12, §13, §14

T1 sequence (P35372 whole entry): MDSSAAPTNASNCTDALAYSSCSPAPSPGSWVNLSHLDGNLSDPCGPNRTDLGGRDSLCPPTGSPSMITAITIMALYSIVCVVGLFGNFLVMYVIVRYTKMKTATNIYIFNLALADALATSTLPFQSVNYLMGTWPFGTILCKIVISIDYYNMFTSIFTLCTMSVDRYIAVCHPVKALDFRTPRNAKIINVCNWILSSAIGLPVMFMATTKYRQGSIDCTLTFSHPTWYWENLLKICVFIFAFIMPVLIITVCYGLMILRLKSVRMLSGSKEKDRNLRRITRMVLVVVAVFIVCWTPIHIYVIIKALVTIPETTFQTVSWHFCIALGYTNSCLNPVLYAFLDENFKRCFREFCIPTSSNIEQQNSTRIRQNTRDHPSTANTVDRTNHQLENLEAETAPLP
T3 sequence (P41145 whole entry): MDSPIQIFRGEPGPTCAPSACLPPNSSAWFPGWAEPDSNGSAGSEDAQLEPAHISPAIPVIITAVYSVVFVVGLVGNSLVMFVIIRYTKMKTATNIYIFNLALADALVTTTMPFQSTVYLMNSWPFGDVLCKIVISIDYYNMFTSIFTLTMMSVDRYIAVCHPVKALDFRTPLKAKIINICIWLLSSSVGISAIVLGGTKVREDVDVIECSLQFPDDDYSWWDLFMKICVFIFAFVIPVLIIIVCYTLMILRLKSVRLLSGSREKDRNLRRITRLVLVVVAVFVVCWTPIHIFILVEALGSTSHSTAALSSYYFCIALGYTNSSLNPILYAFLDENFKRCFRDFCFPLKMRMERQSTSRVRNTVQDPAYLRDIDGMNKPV
T2 sequence (P41143 whole entry): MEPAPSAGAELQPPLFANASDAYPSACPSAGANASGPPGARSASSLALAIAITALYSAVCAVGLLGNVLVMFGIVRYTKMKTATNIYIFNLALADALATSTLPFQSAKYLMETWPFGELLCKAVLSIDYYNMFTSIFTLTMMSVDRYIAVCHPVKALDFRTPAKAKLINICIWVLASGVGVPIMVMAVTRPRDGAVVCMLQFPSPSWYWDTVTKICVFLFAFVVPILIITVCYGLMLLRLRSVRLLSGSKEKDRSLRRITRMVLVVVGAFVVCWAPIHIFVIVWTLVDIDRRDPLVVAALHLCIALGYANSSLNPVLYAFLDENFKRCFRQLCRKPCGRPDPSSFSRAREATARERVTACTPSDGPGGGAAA

Structure (SMILES)	AUC(0-t) [1] [µM·h]	C0 [1] [nM]	MRT last [1] [h]	Vd [1] [L/kg]	clearance [1] [mL/min/kg]	half-life [1] [h]	EC50 [3] [µM]	IC50 [3] [µM]	B/P ratio (0.25 h) [4]	B/P ratio (2 h) [4]	EC50 [5] [µM]	IC50 [5] [µM]	EC50 [6] [µM]	IC50 [6] [µM]	other results
C[C@@]12CCCCC[C@@H](Cc3ccc(O)cc31)[C@@H]2N (relative stereo) [Dezocine, (−)-[5R-(5α,11α,13S*)]-13-amino-5,6,7,8,9,10,11,12-octahydro-5-methyl-5,11-methan obenzocyclodecen-3-ol]	0.485	684	1.22	12.2	139	1.26	–	–	–	–	–	–	–	–	–
C[C@@]12CCCCC[C@@H](Cc3c(F)cc(O)cc31)[C@@H]2N [Compound 21]	0.387	493	1.35	16.2	155	1.42	≤ 0.1	≤ 0.1	13.3	19.8	> 100	1 to 10	> 100	1 to 10	half-life ([2]; 40 umol/kg, Compound 21 itself dosed at 40 μmol/kg, sesame oil suspension): 4.2 h; AUC(0-t) ([2]; 40 umol/kg, Compound 21 itself dosed at 40 μmol/kg, sesame oil suspension, read-out: AUC0-last): 3.99 µM·h; Cmax ([2]; 40 umol/kg, Compound 21 itself dosed at 40 μmol/kg, sesame oil suspension, read-out: Cmax): 1750 nM; MRT last ([2]; 40 umol/kg, Compound 21 itself dosed at 40 μmol/kg, sesame oil suspension, read-out: MRT0-last): 2.82 h; Tmax ([2]; 40 umol/kg, Compound 21 itself dosed at 40 μmol/kg, sesame oil suspension, read-out: Tmax): 0.5 h
C[C@]12CCCCC[C@@H](Cc3c(Cl)cc(O)cc31)[C@@H]2N [Compound 23]	0.341	362	1.65	20.6	165	1.6	≤ 0.1	≤ 0.1	16.7	27.9	> 100	> 100	> 100	1 to 10	–
C[C@@]12CCCCC[C@@H](Cc3c(F)cc(OC(=O)CCCCC(=O)Oc4cc(F)c5c(c4)[C@@]4(C)CCCCC[C@@H](C5)[C@@H]4N)cc31)[C@@H]2N [Compound 34]	–	–	–	–	–	–	–	–	–	–	–	–	–	–	AUC(0-t) ([2]; 20 umol/kg, carboxylic diester prodrug 20 μmol/kg, analyte: prodrug itself, read-out: AUC0-last of the prodrug): 0.00295 µM·h; Cmax ([2]; 20 umol/kg, carboxylic diester prodrug 20 μmol/kg, analyte: prodrug itself, read-out: Cmax of the prodrug): 3.91 nM; MRT last ([2]; 20 umol/kg, carboxylic diester prodrug 20 μmol/kg, analyte: prodrug itself, read-out: MRT0-last of the prodrug): 0.539 h; Tmax ([2]; 20 umol/kg, carboxylic diester prodrug 20 μmol/kg, analyte: prodrug itself, read-out: Tmax of the prodrug): 0.25 h
